# Data: patent publication US20240368120A1 (Terns Pharmaceuticals, Inc., priority 2023, published 2024)
# Key:
# [1] = Rat pharmacokinetics, oral dosing; format: in vivo, Sprague-Dawley rats; conditions: male, Sprague-Dawley, oral dosing at 3 mg/kg, plasma; for half-life: read-out: Rat T1/2
# Experimental: Intravenous dosing: Compounds were formulated at 1.0 mg/mL in a solution comprising 5% polyethylene glycol 400 and 95% (12% (w/v) sulfobutyl-β-cyclodextrin in water) (v/v). Formulated compounds were sterile filtered through a 0.22 micron filter before dosing. Compounds were administered to male, 7-11-week-old Sprague-Dawley rats by jugular vein cannula infusion over 30 minutes at a dose of 1 mg/kg. Oral dosing: Compounds were formulated at 1.0 mg/mL in a solution comprising 5% polyethylene glycol 400 and 95% (12% (w/v) sulfobutyl-β-cyclodextrin in water) (v/v). Formulated compounds were administered to male, 7-11 week old Sprague-Dawley rats by oral gavage at a dose of 10 mg/kg or 3 mg/kg.
# Sample collection: Blood collections of about 0.2 mL per time point were performed from jugular vein or other suitable site of each animal, into pre-chilled commercial EDTA-K2 tubes and placed on wet ice until centrifugation. Blood samples were processed for plasma by centrifugation at approximately 4° C., 3,200 g for 10 min. Plasma was collected and transferred into pre-labeled 96 well plate or polypropylene tubes, quick frozen over dry ice and kept at −60° C. or lower until
# Data analysis: Plasma concentration versus time data was plotted in graph and analyzed by non-compartmental approaches using the Phoenix WinNonlin 6.3 software program. Related PK parameters were calculated according to dosing route, e.g., CL, Vdss and C0 for intravenous administration, Cmax, Tmax or % F for extravascular administration, and T1/2, AUC(0-t), AUC(0-inf), MRT(0-t), MRT(0-inf) for all routes.
# human GLP-1R receptor = biological target: T1, human GLP-1R receptor (Homo sapiens, UniProt P43220); assay: GLP-1R low expression cell assay (cAMP TR-FRET, CHO-K1_hGLP-1Rlow_clone10 cells); format: cell-based; conditions: for EC50: cAMP TR-FRET, 30 min at 25° C.; for Emax: maximum activation relative to control GLP-1 peptide agonist
# T1 construct: expressed in transfected cells
# Outline: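 CHO-K1 cells stably expressing low surface human GLP-1R (clone10), 1,000 cells/well, exposed to 10-point 3-fold compound dilutions for 30 min at 25 °C. cAMP measured by TR-FRET (Eu-cAMP tracer/ULight-anti-cAMP, 15 min). EC50 from Hill fit of duplicate percent activation relative to a parallel GLP-1 control agonist.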
# T1 sequence (P43220 24-463): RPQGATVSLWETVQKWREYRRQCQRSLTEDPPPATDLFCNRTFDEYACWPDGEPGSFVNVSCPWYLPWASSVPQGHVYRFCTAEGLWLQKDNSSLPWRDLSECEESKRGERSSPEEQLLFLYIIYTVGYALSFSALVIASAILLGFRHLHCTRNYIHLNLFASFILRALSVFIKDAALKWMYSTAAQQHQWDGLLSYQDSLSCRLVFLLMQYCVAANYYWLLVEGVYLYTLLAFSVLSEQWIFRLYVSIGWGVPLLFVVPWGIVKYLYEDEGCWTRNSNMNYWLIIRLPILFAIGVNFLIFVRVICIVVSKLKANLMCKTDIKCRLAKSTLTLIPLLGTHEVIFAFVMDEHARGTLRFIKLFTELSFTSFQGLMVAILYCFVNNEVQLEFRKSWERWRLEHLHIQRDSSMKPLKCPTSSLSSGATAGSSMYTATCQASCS
Cmax [1] [ng/mL],half-life [1] [h],bioavailability [1] [%],EC50 (human GLP-1R receptor) [nM],Emax (human GLP-1R receptor) [%],AUC [1] [ng·h/mL],Compound
> 5000,1.5 to 2.5,> 85,100 to 1000,> 85,,"Cn1c(CN2CCC(c3cccc(OCc4ccc(C#N)cc4F)c3)CC2)nc2c(OC(F)F)cc(C(=O)O)cc21 [Compound 111, 2-((4-(3-((4-Cyano-2-fluorobenzyl)oxy)phenyl)piperidin-1-yl)methyl)-4-(difluoromethoxy)-1-methyl-1H-benzo[d]imidazole-6-carboxylic acid]"
2000 to 5000,1.5 to 2.5,50 to 85,10 to 100,> 85,2500 to 10000,"COc1cc(C(=O)O)cc2c1nc(CN1CCC(c3cccc(OCc4ccc(C(F)F)cc4F)n3)CC1)n2C [Compound 305, 2-((4-(6-((4-(Difluoromethyl)-2-fluorobenzyl)oxy)pyridin-2-yl)piperidin-1-yl)methyl)-4-methoxy-1-methyl-1H-benzo[d]imidazole-6-carboxylic acid]"
> 5000,1.5 to 2.5,> 85,10 to 100,> 85,2500 to 10000,"Cn1c(CN2CCC(c3ccc(F)c(OCc4ccc(C#N)cc4F)n3)CC2)nc2c(OC(F)F)cc(C(=O)O)cc21 [Compound 137, 2-((4-(6-((4-Cyano-2-fluorobenzyl)oxy)-5-fluoropyridin-2-yl)piperidin-1-yl)methyl)-4-(difluoromethoxy)-1-methyl-1H-benzo[d]imidazole-6-carboxylic acid]"
< 500,≥ 2.5,< 25,> 1000,50 to 85,< 500,"Cn1c(CN2CCC(c3cccc4c3O[C@@H](c3ccc(C#N)cc3F)CO4)CC2)nc2c(OCCF)cc(C(=O)O)cc21 [Compound 294, (S)-2-((4-(3-(4-Cyano-2-fluorophenyl)-2,3-dihydrobenzo[b][1,4]dioxin-5-yl)piperidin-1-yl)methyl)-4-(2-fluoroethoxy)-1-methyl-1H-benzo[d]imidazole-6-carboxylic acid]"
2000 to 5000,1.5 to 2.5,25 to 50,< 10,> 85,2500 to 10000,"[2H]C([2H])(C)Oc1cc(C(=O)O)cc2c1nc(CN1CCC(c3cccc(OCc4ccc(Cl)cc4F)n3)CC1)n2C [Compound 296, 2-((4-(6-((4-Chloro-2-fluorobenzyl)oxy)pyridin-2-yl)piperidin-1-yl)methyl)-4-(ethoxy-1,1-d2)-1-methyl-1H-benzo[d]imidazole-6-carboxylic acid]"
1000 to 2000,1.5 to 2.5,50 to 85,< 10,> 85,2500 to 10000,"COc1cc(C(=O)O)cc2c1nc(CN1CCC(c3cccc(OCc4ccc(C#N)cc4F)n3)CC1)n2C [Compound 308, 2-((4-(6-((4-Cyano-2-fluorobenzyl)oxy)pyridin-2-yl)piperidin-1-yl)methyl)-4-methoxy-1-methyl-1H-benzo[d]imidazole-6-carboxylic acid]"
< 500,< 1.5,< 25,< 10,> 85,< 500,"CC(C)Oc1cc(C(=O)O)cc2c1nc(CN1CCC(c3cccc(OCc4ccc(C#N)cc4F)n3)CC1)n2Cc1cncs1 [Compound 73, 2-((4-(6-((4-Cyano-2-fluorobenzyl)oxy)pyridin-2-yl)piperidin-1-yl)methyl)-4-isopropoxy-1-(thiazol-5-ylmethyl)-1H-benzo[d]imidazole-6-carboxylic acid]"
500 to 1000,< 1.5,25 to 50,10 to 100,> 85,500 to 2500,"CC(F)(F)c1cc(C(=O)O)cc2c1nc(CN1CCC(c3cccc4c3O[C@](C)(c3ccc(Cl)cn3)O4)CC1)n2C[C@@H]1CCO1 [Compound 71, 2-((4-((R)-2-(5-Chloropyridin-2-yl)-2-methylbenzo[d][1,3]dioxol-4-yl)piperidin-1-yl)methyl)-4-(1,1-difluoroethyl)-1-(((S)-oxetan-2-yl)methyl)-1H-benzo[d]imidazole-6-carboxylic acid]"
< 500,≥ 2.5,25 to 50,10 to 100,> 85,< 500,"Cn1c(CN2CCC(c3cccc(OCc4ccc(Cl)cc4F)n3)CC2)nc2c(O)cc(C(=O)O)cc21 [Compound 307, 2-((4-(6-((4-Chloro-2-fluorobenzyl)oxy)pyridin-2-yl)piperidin-1-yl)methyl)-4-hydroxy-1-methyl-1H-benzo[d]imidazole-6-carboxylic acid]"
2000 to 5000,1.5 to 2.5,50 to 85,< 10,> 85,2500 to 10000,"COc1cc(C(F)(F)F)ccc1COc1cccc(C2CCN(Cc3nc4c(OC)cc(C(=O)O)cc4n3C)CC2)n1 [Compound 306, 4-Methoxy-2-((4-(6-((2-methoxy-4-(trifluoromethyl)benzyl)oxy)pyridin-2-yl)piperidin-1-yl)methyl)-1-methyl-1H-benzo[d]imidazole-6-carboxylic acid]"
1000 to 2000,1.5 to 2.5,50 to 85,< 10,> 85,500 to 2500,"Cn1c(CN2CCC(c3cccc(OCc4ccc(C#N)cc4F)n3)CC2)nc2c(OCF)cc(C(=O)O)cc21 [Compound 113, 2-((4-(6-((4-Cyano-2-fluorobenzyl)oxy)pyridin-2-yl)piperidin-1-yl)methyl)-4-(fluoromethoxy)-1-methyl-1H-benzo[d]imidazole-6-carboxylic acid]"
< 500,1.5 to 2.5,50 to 85,< 10,> 85,500 to 2500,"Cn1c(CN2CCC(c3cccc4c3O[C@@H](c3ccc(Cl)cc3F)CO4)CC2)nc2c(OCCF)cc(C(=O)O)cc21 [Compound 299, (S)-2-((4-(3-(4-chloro-2-fluorophenyl)-2,3-dihydrobenzo[b][1,4]dioxin-5-yl)piperidin-1-yl)methyl)-4-(2-fluoroethoxy)-1-methyl-1H-benzo[d]imidazole-6-carboxylic acid]"
< 500,1.5 to 2.5,25 to 50,< 10,> 85,< 500,"C[C@]1(c2ccc(Cl)cn2)Oc2cccc(C3CCN(Cc4nc5c(OC6CC6)cc(C(=O)O)cc5n4Cc4cncs4)CC3)c2O1 [Compound 6, (S)-2-((4-(2-(5-chloropyridin-2-yl)-2-methylbenzo[d][1,3]dioxol-4-yl)piperidin-1-yl)methyl)-4-cyclopropoxy-1-(thiazol-5-ylmethyl)-1H-benzo[d]imidazole-6-carboxylic acid]"
2000 to 5000,≥ 2.5,> 85,< 10,> 85,2500 to 10000,"Cn1c(CN2CCC(c3cccc4c3O[C@@](C)(c3ccc(Cl)cn3)O4)CC2)nc2c(OC(F)F)cc(C(=O)O)cc21 [Compound 83, (S)-2-((4-(2-(5-Chloropyridin-2-yl)-2-methylbenzo[d][1,3]dioxol-4-yl)piperidin-1-yl)methyl)-4-(difluoromethoxy)-1-methyl-1H-benzo[d]imidazole-6-carboxylic acid]"
< 500,≥ 2.5,< 25,,> 85,< 500,"COCCOc1cc(C(=O)O)cc2c1nc(CN1CCC(c3cccc4c3O[C@@](C)(c3ccc(Cl)cn3)O4)CC1)n2C [Compound 309, (S)-2-((4-(2-(5-Chloropyridin-2-yl)-2-methylbenzo[d][1,3]dioxol-4-yl)piperidin-1-yl)methyl)-4-(2-methoxyethoxy)-1-methyl-1H-benzo[d]imidazole-6-carboxylic acid]"
1000 to 2000,≥ 2.5,25 to 50,< 10,> 85,500 to 2500,"CCOc1cc(C(=O)O)cc2c1nc(CN1CCC(c3cccc(OCc4ccc(C#N)cc4F)n3)CC1)n2C [Compound 298, 2-((4-(6-((4-Cyano-2-fluorobenzyl)oxy)pyridin-2-yl)piperidin-1-yl)methyl)-4-ethoxy-1-methyl-1H-benzo[d]imidazole-6-carboxylic acid]"
2000 to 5000,< 1.5,50 to 85,< 10,> 85,2500 to 10000,"COc1cc(C#N)ccc1COc1cccc(C2CCN(Cc3nc4c(OC(F)F)cc(C(=O)O)cc4n3C)CC2)n1 [Compound 156, 2-((4-(6-((4-Cyano-2-methoxybenzyl)oxy)pyridin-2-yl)piperidin-1-yl)methyl)-4-(difluoromethoxy)-1-methyl-1H-benzo[d]imidazole-6-carboxylic acid]"
